# Data published in article PMC11470957, “Principles of paralog-specific targeted protein degradation engaging the C-degron E3 KLHDC2” (Nature Communications, 2024).
# Read-outs that look alike come from different tables or passages of the source.
# Target: BRD2 (Homo sapiens, UniProt P25440)
# Assay: Western blot of BRD2 levels after cellular dosing
# Conditions: for remaining activity at 2.19382 µM: Log SJ46420 (uM) 2.19382; for remaining activity at 2.79588 µM: Log SJ46420 (uM) 2.79588; for remaining activity at 3.09691 µM: Log SJ46420 (uM) 3.09691; for remaining activity at 3.39794 µM: Log SJ46420 (uM) 3.39794; for remaining activity at 3.69897 µM: Log SJ46420 (uM) 3.69897; for remaining activity at 4 µM: Log SJ46420 (uM) 4
# [1] = 22Rv1, read-out: BRD2 (DMSO = 100), 22Rv1 cells, Rep1, Rep2
# [2] = PC-3, read-out: BRD2 (DMSO = 100), PC3 cells, Rep1, Rep2
# Sequence of BRD2 (P25440 whole entry): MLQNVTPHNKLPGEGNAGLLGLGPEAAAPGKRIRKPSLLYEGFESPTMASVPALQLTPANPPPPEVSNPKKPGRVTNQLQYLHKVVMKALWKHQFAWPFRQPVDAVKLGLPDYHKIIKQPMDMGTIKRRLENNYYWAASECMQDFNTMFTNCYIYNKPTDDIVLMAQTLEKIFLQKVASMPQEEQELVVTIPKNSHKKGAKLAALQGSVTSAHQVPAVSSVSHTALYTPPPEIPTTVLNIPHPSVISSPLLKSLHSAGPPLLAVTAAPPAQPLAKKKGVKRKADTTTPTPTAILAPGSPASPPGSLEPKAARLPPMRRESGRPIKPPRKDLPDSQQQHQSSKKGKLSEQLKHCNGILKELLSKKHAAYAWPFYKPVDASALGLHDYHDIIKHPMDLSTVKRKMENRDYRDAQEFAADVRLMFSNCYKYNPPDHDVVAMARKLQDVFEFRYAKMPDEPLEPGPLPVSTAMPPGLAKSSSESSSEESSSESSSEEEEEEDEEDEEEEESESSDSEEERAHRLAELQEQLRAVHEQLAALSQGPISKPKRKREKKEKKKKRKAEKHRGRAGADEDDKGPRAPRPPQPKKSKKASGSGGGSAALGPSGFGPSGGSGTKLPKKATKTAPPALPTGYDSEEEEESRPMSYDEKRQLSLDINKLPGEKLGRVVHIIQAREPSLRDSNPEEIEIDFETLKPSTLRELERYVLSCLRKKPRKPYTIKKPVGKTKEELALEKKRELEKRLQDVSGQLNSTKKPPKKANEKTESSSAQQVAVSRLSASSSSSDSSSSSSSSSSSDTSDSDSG
smiles,measurement,setting,value
COC(=O)CNC(=O)Cc1csc(-c2ccc3cccc(OCCN4CCN(C(=O)C[C@@H]5N=C(c6ccc(Cl)cc6)c6c(sc(C)c6C)-n6c(C)nnc65)CC4)c3c2)n1 [SJ46420],remaining activity at 0.16 µM,"22Rv1, 24 h, read-out: BRD2 level relative to DMSO (100%), 22Rv1, 0.16µM, 24 h, Fig S6f",99 ± 7.4%
same,remaining activity at 0.31 µM,"22Rv1, 24 h, read-out: BRD2 level relative to DMSO (100%), 22Rv1, 0.31µM, 24 h, Fig S6f",92 ± 16%
same,remaining activity at 0.63 µM,"22Rv1, 24 h, read-out: BRD2 level relative to DMSO (100%), 22Rv1, 0.63µM, 24 h, Fig S6f",93 ± 8.7%
same,remaining activity at 1.3 µM,"22Rv1, 24 h, read-out: BRD2 level relative to DMSO (100%), 22Rv1, 1.3µM, 24 h, Fig S6f",88 ± 1.3%
same,remaining activity at 2.5 µM,"22Rv1, 24 h, read-out: BRD2 level relative to DMSO (100%), 22Rv1, 2.5µM, 24 h, Fig S6f",83 ± 5.5%
same,remaining activity at 5 µM,"22Rv1, 24 h, read-out: BRD2 level relative to DMSO (100%), 22Rv1, 5µM, 24 h, Fig S6f",87 ± 7.4%
same,remaining activity at 10 µM,"22Rv1, 24 h, read-out: BRD2 level relative to DMSO (100%), 22Rv1, 10µM, 24 h, Fig S6f",92 ± 5.6%
same,remaining activity at 2.19382 µM,[1],94.2%
same,remaining activity at 2.79588 µM,[1],98.7%
same,remaining activity at 3.09691 µM,[1],88.1%
same,remaining activity at 3.39794 µM,[1],87.2%
same,remaining activity at 3.69897 µM,[1],92.7%
same,remaining activity at 4 µM,[1],96.3%
same,Dmax,"22Rv1, read-out: BRD2 Dmax, 22Rv1, 24 h dose",0%
same,remaining activity at 0.156 µM,"22Rv1, read-out: BRD2 level, Western blot quantification (DMSO = 100), Fig S6f, 22RV1 KO/rescue Dose Response, 0.156 uM",94.2%
same,remaining activity at 0.625 µM,"22Rv1, read-out: BRD2 level, Western blot quantification (DMSO = 100), Fig S6f, 22RV1 KO/rescue Dose Response, 0.625 uM",98.7%
same,remaining activity at 1.25 µM,"22Rv1, read-out: BRD2 level, Western blot quantification (DMSO = 100), Fig S6f, 22RV1 KO/rescue Dose Response, 1.25 uM",88.1%
same,remaining activity at 2.5 µM,"22Rv1, read-out: BRD2 level, Western blot quantification (DMSO = 100), Fig S6f, 22RV1 KO/rescue Dose Response, 2.5 uM",87.2%
same,remaining activity at 5 µM,"22Rv1, read-out: BRD2 level, Western blot quantification (DMSO = 100), Fig S6f, 22RV1 KO/rescue Dose Response, 5 uM",92.7%
same,remaining activity at 10 µM,"22Rv1, read-out: BRD2 level, Western blot quantification (DMSO = 100), Fig S6f, 22RV1 KO/rescue Dose Response, 10uM",96.3%
same,remaining activity at 0.16 µM,"24 h, read-out: BRD2 level relative to DMSO (100%), PC3, 0.16µM, 24 h, Fig S6e",90 ± 11%
same,remaining activity at 0.31 µM,"24 h, read-out: BRD2 level relative to DMSO (100%), PC3, 0.31µM, 24 h, Fig S6e",98 ± 2.9%
same,remaining activity at 0.63 µM,"24 h, read-out: BRD2 level relative to DMSO (100%), PC3, 0.63µM, 24 h, Fig S6e",83 ± 3.4%
same,remaining activity at 1.3 µM,"24 h, read-out: BRD2 level relative to DMSO (100%), PC3, 1.3µM, 24 h, Fig S6e",89 ± 5.6%
same,remaining activity at 2.5 µM,"24 h, read-out: BRD2 level relative to DMSO (100%), PC3, 2.5µM, 24 h, Fig S6e",92 ± 9.1%
same,remaining activity at 5 µM,"24 h, read-out: BRD2 level relative to DMSO (100%), PC3, 5µM, 24 h, Fig S6e",91 ± 7.6%
same,remaining activity at 10 µM,"24 h, read-out: BRD2 level relative to DMSO (100%), PC3, 10µM, 24 h, Fig S6e",88 ± 9.1%
same,remaining activity at 0.2 µM,"AU565, 8 h, read-out: BRD2 level relative to DMSO (100%), AU565, 0.2µM, 8 h, Fig S6c",93 ± 3.1%
same,remaining activity at 1 µM,"AU565, 8 h, read-out: BRD2 level relative to DMSO (100%), AU565, 1µM, 8 h, Fig S6c",96 ± 6.2%
same,remaining activity at 5 µM,"AU565, 8 h, read-out: BRD2 level relative to DMSO (100%), AU565, 5µM, 8 h, Fig S6c",90 ± 5.1%
same,remaining activity at 0.2 µM,"AU565, read-out: BRD2 level, Western blot quantification (DMSO = 100), Fig S6c, AU565 Cells, 0.2 uM",91.6%
same,remaining activity at 1 µM,"AU565, read-out: BRD2 level, Western blot quantification (DMSO = 100), Fig S6c, AU565 Cells, 1 uM",101%
same,remaining activity at 5 µM,"AU565, read-out: BRD2 level, Western blot quantification (DMSO = 100), Fig S6c, AU565 Cells, 5 uM",87%
same,remaining activity at 2.5 µM,"HEK-293T, 24 h, read-out: BRD2 level relative to DMSO (100%), 293T, 2.5µM, 24 h, Fig S6a",89 ± 9.5%
same,remaining activity at 5 µM,"HEK-293T, 24 h, read-out: BRD2 level relative to DMSO (100%), 293T, 5µM, 24 h, Fig S6a",92 ± 2.5%
same,remaining activity at 2.5 µM,"HEK-293T, read-out: BRD2 level, Western blot quantification (DMSO = 100), Fig S6a, 293T cells, 2.5 uM",82%
same,remaining activity at 5 µM,"HEK-293T, read-out: BRD2 level, Western blot quantification (DMSO = 100), Fig S6a, 293T cells, 5 uM",91.4%
same,remaining activity at 2.5 µM,"MDA-MB-468, 24 h, read-out: BRD2 level relative to DMSO (100%), MDA-MB-468, 2.5µM, 24 h, Fig S6b",79 ± 8.9%
same,remaining activity at 5 µM,"MDA-MB-468, 24 h, read-out: BRD2 level relative to DMSO (100%), MDA-MB-468, 5µM, 24 h, Fig S6b",89 ± 3.9%
same,remaining activity at 10 µM,"MDA-MB-468, 24 h, read-out: BRD2 level relative to DMSO (100%), MDA-MB-468, 10µM, 24 h, Fig S6b",91 ± 3.1%
same,remaining activity at 2 µM,"MDA-MB-468, read-out: BRD2 level, Western blot quantification (DMSO = 100), Fig S6b, MDA-MB468 Cells, 2 uM",73.4%
same,remaining activity at 5 µM,"MDA-MB-468, read-out: BRD2 level, Western blot quantification (DMSO = 100), Fig S6b, MDA-MB468 Cells, 5 uM",86.5%
same,remaining activity at 10 µM,"MDA-MB-468, read-out: BRD2 level, Western blot quantification (DMSO = 100), Fig S6b, MDA-MB468 Cells, 10 uM",89.6%
same,remaining activity at 1.89279 µM,"PC-3, read-out: BRD2 (DMSO = 100), PC3 cells, Log SJ46420 (uM) 1.89279, Rep1, Rep2",89%
same,remaining activity at 2.19382 µM,[2],83.3%
same,remaining activity at 2.49485 µM,"PC-3, read-out: BRD2 (DMSO = 100), PC3 cells, Log SJ46420 (uM) 2.49485, Rep1, Rep2",100%
same,remaining activity at 2.79588 µM,[2],81.2%
same,remaining activity at 3.09691 µM,[2],85.7%
same,remaining activity at 3.39794 µM,[2],86.6%
same,remaining activity at 3.69897 µM,[2],86.5%
same,remaining activity at 4 µM,[2],81.6%
same,remaining activity at 1 µM,"SK-BR-3, 2 h, read-out: BRD2 level relative to DMSO (100%), SKBR3, 1µM, 2hr, Fig S6g",71 ± 3.9%
same,remaining activity at 5 µM,"SK-BR-3, 2 h, read-out: BRD2 level relative to DMSO (100%), SKBR3, 5µM, 2hr, Fig S6g",69 ± 10%
same,remaining activity at 1 µM,"SK-BR-3, 2 h, read-out: BRD2 level, Western blot quantification (DMSO = 100), Fig S6g, SKBR3 Time course, 1 uM, 2hr",67.4%
same,remaining activity at 5 µM,"SK-BR-3, 2 h, read-out: BRD2 level, Western blot quantification (DMSO = 100), Fig S6g, SKBR3 Time course, 5 uM, 2hr",61.5%
same,remaining activity at 1 µM,"SK-BR-3, 4 h, read-out: BRD2 level relative to DMSO (100%), SKBR3, 1µM, 4hr, Fig S6g",82 ± 4%
same,remaining activity at 5 µM,"SK-BR-3, 4 h, read-out: BRD2 level relative to DMSO (100%), SKBR3, 5µM, 4hr, Fig S6g",83 ± 6.1%
same,remaining activity at 5 µM,"SK-BR-3, 4 h, read-out: BRD2 level relative to DMSO (100%), SKBR3, 5µM, 4hr, Fig S6j",85 ± 7.3%
